{
  "source": "patent US9623031B2",
  "about": "“Compositions, methods and kits for treating cancer” (priority 2011, dated 2017)",
  "key": {"[1]": {"system": "imatinib-resistant BCR-ABL(GFP)+ cells", "test": "Imatinib-resistant BCR-ABL(GFP)+ LSCs treated ex vivo", "assay_type": "cell-based, mouse", "conditions": "splenocytes after imatinib i.p. 1 wk and 1 week washout; 25 nM, 24 h", "description": "FIG. 8 is a graph showing that imatinib-resistant BCR-ABL(GFP)+ cells are targeted by Δ^12-PGJ3. […] The mice were followed for the development of leukemia. Mice that developed leukemia were euthanized and spleens were used as the source of LSCs.\nGFP+ LSCs were analyzed by flow cytometry."}, "p53": {"system": "p53", "test": "p53 expression in FV-LSCs treated ex vivo (RT-PCR, nuclear extracts)", "assay_type": "cell-based, mouse", "conditions": "12 h"}, "[2]": {"system": "FV-LSCs (M34^+Kit^+Sca1^+)", "test": "Apoptosis of FV-LSCs treated ex vivo (annexin V, flow cytometry)", "assay_type": "cell-based, mouse", "conditions": "36 h", "quoted_text": "Apoptosis of LSCs was performed using annexin V as described below in Supplementary Information and Methods.\nOn day 14 after infection, spleens were isolated and a single cell suspension of spleen cells was generated. The cells were filtered through a 70 μm sterile filter and flow-through cells were resuspended in RBC lysis buffer followed by centrifugation. Leukemia stem cells were isolated by FACS. Spleen cells were labeled with anti-Kit, Sca1 (BioLegend, San Diego, Calif.) and M34 antibodies. […] As indicated M34^+Kit^+Sca1^+ cells were cultured in Methocult media (Stem Cell Technologies Vancouver BC) M3334 supplemented with 200 ng/ml Sonic Hedgehog (Shh), 15 ng/ml bone morphogenetic protein-4 (BMP4) (both from R&D Systems Minneapolis, Minn.), and 50 ng/ml stem cell factor (SCF; Peprotech).\nThe LSCs were diluted in DMEM, resuspended using a 16-gauge needle, and collected by centrifugation. 1×10^5 cells were resuspended in 200 μl of binding buffer (0.1 M HEPES with 1.4 M NaCl, 25 mM CaCl2, pH 7.4). Annexin V FITC (BD Biosciences) was incubated with cells for 15 min on ice followed by flow cytometric analysis.\nThe cells were stained with annexin V-FITC and analyzed by flow cytometry. […] Means±s.e.m. *P<0.001 compared to vehicle (PBS). […] Inset: Effect of rosiglitazone on the apoptosis of LSC. Rosiglitazone (0.1-2.0 μM) was incubated with LSC in the culture media for 36 h as described earlier and the cells were subjected to annexin-V staining followed by flow cytometry. […] LSC were treated ex vivo with indicated concentrations of each compound for 36 h. Mean±s.e.m. shown *P<0.001."}, "NF-κB": {"system": "NF-κB", "test": "NF-κB activation in sorted BCR-ABL+ LSCs (EMSA, Western blot)", "assay_type": "cell-based, mouse", "conditions": "25 nM, 0-6 h", "description": "The effect of Δ^12-PGJ3 on NF-κB and PPAPγ was examined. RAW264.7 macrophages were pretreated with DMSO, Δ^12-PGJ3 at 0.25, or 1.0 μM and subsequently stimulated with 100 ng/mL E. coli LPS for 4 h. The nuclear extracts were prepared and the binding of NΦκB to a ^32P-labeled consensus double stranded oligonucleotide probe was examined using gel shift analysis. NS=non-specific band. Lanes 1-5 represent untreated, LPS alone, DMSO+LPS, Δ^12-PGJ3 (0.25 μM)+LPS, and Δ^12-PGJ3 (1 μM)+LPS, respectively. BCR-ABL LSCs were sorted from spleens, plated, and treated with PBS, 25 nM Δ^12-PGJ3, or 9,10-dihydro 15d-PGJ2 for 0, 2 or 6 h. The cells were harvested and nuclear extracts were prepared using standard techniques. Ten μg of nuclear protein was used from each sample for the gel-shift reaction. As a positive control for NF-κB, nuclear extract from LPS-treated murine (RAW264.7) macrophages was used. Anti-p50 Ab was used with this positive control for a supershift, and excess ‘cold’ probe was used with the positive control as a ‘cold competitor’. A Western blot analysis was performed of the above-mentioned nuclear extracts from BCR-ABL LSCs treated with PBS, Δ^12-PGJ3 or 9,10-dihydro-15d-PGJ2 for various time periods (0-6 h) probed with anti-p65 and anti-β-actin antibodies. […]"}, "[3]": {"system": "blast crisis CML cells from a patient (#011711)", "test": "Blast crisis CML patient cells: cytospin and annexin V apoptosis", "assay_type": "cell-based, human", "description": "An experiment involving a cytospin of Blast crisis CML (011711) and Geimsa stain was performed. Blast crisis CML were cultured in IMDM with BIT, LDL, L-Glu and treated with PBS or 100 nM Δ^12-PGJ3 for 12 hrs. Cells were collected and slides were done by Cytospin. Cytospin slides were stained with Wright Geimsa stain and pictures (100×) were recorded on a Material microscope.\nIn this experiment, 110,000/well primary AML cells were cultured in above specified media for 6 and 12 hrs. Cells were collected and washed once with ice cold PBS. The cells were resuspended in 200 ul 1× Apoptosis buffer with annexin-V PE to all tubes. The cells were washed in PBS and resuspended in 600 ul PBS and transfer into flow tubes and analyzed for apoptosis (Annexin V+ cells) on FC-500. […] In this experiment, 110,000/well AML cells were cultured in earlier mentioned media for 6 and 12 hrs. Cells were collected and washed once in PBS and resuspended in 200 ul PBS and blocked with FC receptor antibody 10 mins RT. The following antibodies were added: CD38, CD123, CD34, CD117 (BD bioscience) for 1 hr on ice. Cells were washed in PBS once and resuspended in 200 ul of apoptotic buffer, and annexin V was added and incubated for 15 mins. Apoptotic cells (Annexin V+ cells) were counted by flow cytometry. […] Apoptotic cells (Annexin V+ cells) were counted by flow cytometry."}},
  "data": [
    {"molecule": "CC/C=C\\C[C@H](O)C/C=C1/C(=O)C=C[C@@H]1C/C=C\\CCCC(=O)O", "note": "[Δ^12-PGJ3, Δ^12-prostaglandin J3]", "values": [
      {"measurement": "targeting of imatinib-resistant GFP+ LSCs", "setting": "[1]", "value": "can even target LSCs that are resistant to imatinib treatment"},
      {"measurement": "p53 expression at transcript level", "setting": "p53; 10 or 25 nM", "value": "significant upregulation of p53 expression"},
      {"measurement": "nuclear levels of p53 protein", "setting": "p53; sorted LSC", "value": "increase in the nuclear levels of p53 protein"},
      {"measurement": "increase in apoptosis of FV-LSCs", "setting": "[2]; 25 nM", "value": "~75", "unit": "%"},
      {"measurement": "apoptosis of FV-LSCs, dose response", "setting": "[2]; annexin V", "value": "identical effect"},
      {"measurement": "NF-κB activation, EMSA and Western blot of nuclear extracts", "setting": "NF-κB", "value": "lack of activation of NF-κB"},
      {"measurement": "cell death, cytospin with Wright Geimsa stain", "setting": "[3]; 100 nM, 12 hrs", "value": "death of blast-crisis CML cells"},
      {"measurement": "apoptosis (Annexin V+ cells)", "setting": "[3]; 6 and 12 hrs", "value": "induces apoptosis in BC-CML primary patient cells"}
    ]}
  ]
}
